Results as given in PubChem BioAssay AID588471 (The Scripps Research Institute Molecular Screening Center, 2011).
pIC50: −log10 of the molar value.

What was measured:
Assay in all cases: PubChem AID 588471; call rule not given here
[1] = target: Protein-arginine deiminase type-2 (Homo sapiens) (UniProt Q9Y2J8); settings: recombinant PAD1-4, BAEE citrulline colorimetric absorbance; PAD2
[2] = target: Protein-arginine deiminase type-3 (Homo sapiens) (UniProt Q9ULW8); settings: recombinant PAD1-4, BAEE citrulline colorimetric absorbance; PAD3
[3] = target: Protein-arginine deiminase type-4 (Homo sapiens) (UniProt Q9UM07); settings: recombinant PAD1-4, BAEE citrulline colorimetric absorbance; PAD4
[4] = target: Protein-arginine deiminase type-1 (Homo sapiens) (UniProt Q9ULC6); settings: recombinant PAD1-4, BAEE citrulline colorimetric absorbance; PAD1

Measured: pIC50

Chain of Protein-arginine deiminase type-3 (Homo sapiens) (Q9ULW8 whole entry, looked up): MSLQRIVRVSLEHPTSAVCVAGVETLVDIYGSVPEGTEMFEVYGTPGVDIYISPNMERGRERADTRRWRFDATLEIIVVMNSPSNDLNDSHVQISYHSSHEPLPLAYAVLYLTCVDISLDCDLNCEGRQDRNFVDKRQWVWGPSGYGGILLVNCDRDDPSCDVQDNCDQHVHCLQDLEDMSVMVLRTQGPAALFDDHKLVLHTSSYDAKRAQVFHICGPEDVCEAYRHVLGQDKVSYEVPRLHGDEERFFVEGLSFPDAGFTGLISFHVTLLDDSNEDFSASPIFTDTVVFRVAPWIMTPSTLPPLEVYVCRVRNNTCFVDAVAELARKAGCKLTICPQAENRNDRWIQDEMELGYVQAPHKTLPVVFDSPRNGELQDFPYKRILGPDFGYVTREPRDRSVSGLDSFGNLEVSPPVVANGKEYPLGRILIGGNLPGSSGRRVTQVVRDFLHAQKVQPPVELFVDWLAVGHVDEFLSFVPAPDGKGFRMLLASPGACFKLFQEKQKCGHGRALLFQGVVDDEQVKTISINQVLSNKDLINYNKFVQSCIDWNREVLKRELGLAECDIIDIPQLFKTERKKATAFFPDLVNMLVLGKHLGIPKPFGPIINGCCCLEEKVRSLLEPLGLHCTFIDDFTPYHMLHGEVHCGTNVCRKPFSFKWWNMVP
Chain of Protein-arginine deiminase type-1 (Homo sapiens) (Q9ULC6 whole entry, looked up): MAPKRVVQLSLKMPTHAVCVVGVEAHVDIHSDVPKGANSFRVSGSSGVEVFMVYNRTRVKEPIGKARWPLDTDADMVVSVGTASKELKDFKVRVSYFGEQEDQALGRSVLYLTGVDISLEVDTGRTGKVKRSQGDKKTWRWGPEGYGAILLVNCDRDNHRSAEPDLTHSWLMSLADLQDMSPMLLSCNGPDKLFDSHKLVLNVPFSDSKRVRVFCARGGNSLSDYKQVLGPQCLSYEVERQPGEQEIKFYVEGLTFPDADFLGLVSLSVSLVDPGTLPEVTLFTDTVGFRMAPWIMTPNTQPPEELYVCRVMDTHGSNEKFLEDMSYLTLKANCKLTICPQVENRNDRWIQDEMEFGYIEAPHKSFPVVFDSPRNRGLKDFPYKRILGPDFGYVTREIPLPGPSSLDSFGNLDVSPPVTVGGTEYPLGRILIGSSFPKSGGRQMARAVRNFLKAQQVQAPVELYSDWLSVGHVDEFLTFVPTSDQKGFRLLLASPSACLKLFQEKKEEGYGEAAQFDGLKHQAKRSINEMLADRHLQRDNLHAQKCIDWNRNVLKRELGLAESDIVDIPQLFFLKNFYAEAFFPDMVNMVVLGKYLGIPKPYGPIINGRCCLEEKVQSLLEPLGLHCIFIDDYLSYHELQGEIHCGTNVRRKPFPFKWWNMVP
Chain of Protein-arginine deiminase type-2 (Homo sapiens) (Q9Y2J8 whole entry, looked up): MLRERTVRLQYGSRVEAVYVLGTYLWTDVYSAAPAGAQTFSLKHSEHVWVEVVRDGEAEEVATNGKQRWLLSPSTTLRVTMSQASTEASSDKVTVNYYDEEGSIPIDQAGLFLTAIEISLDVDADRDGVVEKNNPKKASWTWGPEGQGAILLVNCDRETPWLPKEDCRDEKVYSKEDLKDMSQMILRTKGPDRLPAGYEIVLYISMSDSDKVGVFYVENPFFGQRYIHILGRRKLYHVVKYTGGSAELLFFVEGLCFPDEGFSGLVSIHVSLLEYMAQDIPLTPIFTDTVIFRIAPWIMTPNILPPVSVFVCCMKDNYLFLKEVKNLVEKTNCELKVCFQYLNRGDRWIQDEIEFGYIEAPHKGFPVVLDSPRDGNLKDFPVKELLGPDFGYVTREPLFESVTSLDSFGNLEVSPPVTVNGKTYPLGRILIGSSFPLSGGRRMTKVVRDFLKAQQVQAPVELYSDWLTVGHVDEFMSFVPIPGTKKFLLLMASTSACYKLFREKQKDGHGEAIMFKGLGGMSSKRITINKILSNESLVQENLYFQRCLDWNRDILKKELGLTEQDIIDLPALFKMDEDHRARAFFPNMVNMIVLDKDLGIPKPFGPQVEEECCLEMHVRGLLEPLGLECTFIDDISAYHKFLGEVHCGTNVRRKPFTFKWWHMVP
Chain of Protein-arginine deiminase type-4 (Homo sapiens) (Q9UM07 whole entry, looked up): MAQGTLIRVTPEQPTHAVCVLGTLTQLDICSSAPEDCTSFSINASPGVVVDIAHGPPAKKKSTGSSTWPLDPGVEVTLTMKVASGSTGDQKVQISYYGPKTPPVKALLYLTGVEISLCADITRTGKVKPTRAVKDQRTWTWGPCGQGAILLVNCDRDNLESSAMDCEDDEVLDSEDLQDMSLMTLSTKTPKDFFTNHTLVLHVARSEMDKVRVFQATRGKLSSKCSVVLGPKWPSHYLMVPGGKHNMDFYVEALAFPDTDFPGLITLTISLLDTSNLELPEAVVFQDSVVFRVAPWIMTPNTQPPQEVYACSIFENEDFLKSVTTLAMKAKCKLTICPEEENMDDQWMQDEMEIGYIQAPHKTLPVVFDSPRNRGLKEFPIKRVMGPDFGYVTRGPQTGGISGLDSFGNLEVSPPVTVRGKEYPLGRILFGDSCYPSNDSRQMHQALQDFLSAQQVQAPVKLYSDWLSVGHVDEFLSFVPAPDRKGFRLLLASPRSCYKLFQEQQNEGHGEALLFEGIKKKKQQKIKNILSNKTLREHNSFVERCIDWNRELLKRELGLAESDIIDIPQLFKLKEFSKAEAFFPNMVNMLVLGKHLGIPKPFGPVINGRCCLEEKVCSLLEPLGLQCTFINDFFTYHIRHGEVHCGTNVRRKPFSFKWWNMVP

NC1=CC(=O)c2ccc(-c3ccccn3)nc2C1=O
active: [1] 6.49 | [2] 6.89 | [3] 6.19 | [4] 6.02
